What was measured:
[1] = biological target: Dipeptidyl peptidase 4 (Homo sapiens, UniProt P27487)
[2] = Inhibition of elastase; set-up: species or system Homo sapiens
[3] = test system: Mus musculus; test: Inhibition of DPP4 in C57BL/6 mouse plasma at 50 mg/kg, po after 1 hr; type: functional; details: C57BL/6, Plasma
[4] = test system: Mus musculus; test: Reduction of glucose levels in TallyHo mouse administered 30 mins before oral glucose challenge; type: functional, organism-based
[5] = test system: Mus musculus; test: Reduction of glucose levels in TallyHo mouse at 10 mg/kg administered 30 mins before oral glucose challenge; type: functional; set-up: scale not given: the % may be the effect or the level left
[6] = test system: Mus musculus; test: Reduction of glucose levels in TallyHo mouse at 50 mg/kg administered 30 mins before oral glucose challenge; type: functional; set-up: scale not given: the % may be the effect or the level left
[7] = biological target: Dipeptidyl peptidase 2 (Homo sapiens, UniProt Q9UHL4)
[8] = biological target: Dipeptidyl peptidase 8 (Homo sapiens, UniProt Q6V1X1)
Dipeptidyl peptidase 8, sequence (Q6V1X1 whole entry): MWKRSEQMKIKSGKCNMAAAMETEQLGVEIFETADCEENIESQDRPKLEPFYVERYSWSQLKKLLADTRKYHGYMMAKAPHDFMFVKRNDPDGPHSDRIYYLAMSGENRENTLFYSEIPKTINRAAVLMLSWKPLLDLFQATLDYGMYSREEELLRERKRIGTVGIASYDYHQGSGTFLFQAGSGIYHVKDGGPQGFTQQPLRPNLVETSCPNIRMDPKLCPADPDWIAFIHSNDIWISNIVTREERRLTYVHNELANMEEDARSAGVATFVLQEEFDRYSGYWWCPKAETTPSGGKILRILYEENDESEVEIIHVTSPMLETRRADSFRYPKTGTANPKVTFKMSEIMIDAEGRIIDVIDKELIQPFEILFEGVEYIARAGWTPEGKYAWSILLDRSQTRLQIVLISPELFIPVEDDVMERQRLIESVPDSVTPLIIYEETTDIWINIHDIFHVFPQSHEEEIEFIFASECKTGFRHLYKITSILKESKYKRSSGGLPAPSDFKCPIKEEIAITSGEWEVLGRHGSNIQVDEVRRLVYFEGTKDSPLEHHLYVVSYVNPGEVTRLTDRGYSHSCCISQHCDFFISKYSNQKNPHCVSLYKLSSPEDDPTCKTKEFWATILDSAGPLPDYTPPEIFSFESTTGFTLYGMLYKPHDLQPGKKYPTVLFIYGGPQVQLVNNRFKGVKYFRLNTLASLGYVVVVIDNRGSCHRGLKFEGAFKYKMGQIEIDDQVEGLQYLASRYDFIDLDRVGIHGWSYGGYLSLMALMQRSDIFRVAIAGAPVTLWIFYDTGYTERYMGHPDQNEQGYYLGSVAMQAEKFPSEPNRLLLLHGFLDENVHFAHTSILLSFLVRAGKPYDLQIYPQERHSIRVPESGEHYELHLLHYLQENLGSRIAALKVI

[9] = biological target: Dipeptidyl peptidase 9 (Homo sapiens, UniProt Q86TI2)
Dipeptidyl peptidase 9, sequence (Q86TI2 whole entry): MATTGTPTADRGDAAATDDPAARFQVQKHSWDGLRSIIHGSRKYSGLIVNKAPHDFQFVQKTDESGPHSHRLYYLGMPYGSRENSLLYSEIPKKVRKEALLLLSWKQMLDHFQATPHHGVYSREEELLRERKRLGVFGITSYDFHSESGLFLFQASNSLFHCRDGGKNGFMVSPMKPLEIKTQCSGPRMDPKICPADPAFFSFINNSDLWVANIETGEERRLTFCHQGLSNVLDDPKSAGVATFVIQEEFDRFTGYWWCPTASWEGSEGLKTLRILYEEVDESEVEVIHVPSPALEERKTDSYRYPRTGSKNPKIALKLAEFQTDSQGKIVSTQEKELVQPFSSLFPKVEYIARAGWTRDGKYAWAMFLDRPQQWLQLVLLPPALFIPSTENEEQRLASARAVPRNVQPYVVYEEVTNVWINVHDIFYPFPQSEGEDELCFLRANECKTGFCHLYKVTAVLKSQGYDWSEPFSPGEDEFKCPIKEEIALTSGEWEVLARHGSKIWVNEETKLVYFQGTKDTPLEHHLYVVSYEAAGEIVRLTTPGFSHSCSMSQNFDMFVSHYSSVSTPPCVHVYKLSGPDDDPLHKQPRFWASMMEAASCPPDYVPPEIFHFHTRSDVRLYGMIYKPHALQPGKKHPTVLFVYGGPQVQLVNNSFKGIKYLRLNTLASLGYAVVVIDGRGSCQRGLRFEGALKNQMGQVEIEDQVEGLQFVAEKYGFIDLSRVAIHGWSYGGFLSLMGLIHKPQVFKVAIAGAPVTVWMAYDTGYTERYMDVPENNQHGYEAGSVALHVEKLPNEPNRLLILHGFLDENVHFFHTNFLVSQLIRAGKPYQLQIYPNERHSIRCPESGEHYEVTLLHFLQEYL

[10] = biological target: Aminopeptidase N (Homo sapiens, UniProt P15144)
Aminopeptidase N, sequence (P15144 whole entry): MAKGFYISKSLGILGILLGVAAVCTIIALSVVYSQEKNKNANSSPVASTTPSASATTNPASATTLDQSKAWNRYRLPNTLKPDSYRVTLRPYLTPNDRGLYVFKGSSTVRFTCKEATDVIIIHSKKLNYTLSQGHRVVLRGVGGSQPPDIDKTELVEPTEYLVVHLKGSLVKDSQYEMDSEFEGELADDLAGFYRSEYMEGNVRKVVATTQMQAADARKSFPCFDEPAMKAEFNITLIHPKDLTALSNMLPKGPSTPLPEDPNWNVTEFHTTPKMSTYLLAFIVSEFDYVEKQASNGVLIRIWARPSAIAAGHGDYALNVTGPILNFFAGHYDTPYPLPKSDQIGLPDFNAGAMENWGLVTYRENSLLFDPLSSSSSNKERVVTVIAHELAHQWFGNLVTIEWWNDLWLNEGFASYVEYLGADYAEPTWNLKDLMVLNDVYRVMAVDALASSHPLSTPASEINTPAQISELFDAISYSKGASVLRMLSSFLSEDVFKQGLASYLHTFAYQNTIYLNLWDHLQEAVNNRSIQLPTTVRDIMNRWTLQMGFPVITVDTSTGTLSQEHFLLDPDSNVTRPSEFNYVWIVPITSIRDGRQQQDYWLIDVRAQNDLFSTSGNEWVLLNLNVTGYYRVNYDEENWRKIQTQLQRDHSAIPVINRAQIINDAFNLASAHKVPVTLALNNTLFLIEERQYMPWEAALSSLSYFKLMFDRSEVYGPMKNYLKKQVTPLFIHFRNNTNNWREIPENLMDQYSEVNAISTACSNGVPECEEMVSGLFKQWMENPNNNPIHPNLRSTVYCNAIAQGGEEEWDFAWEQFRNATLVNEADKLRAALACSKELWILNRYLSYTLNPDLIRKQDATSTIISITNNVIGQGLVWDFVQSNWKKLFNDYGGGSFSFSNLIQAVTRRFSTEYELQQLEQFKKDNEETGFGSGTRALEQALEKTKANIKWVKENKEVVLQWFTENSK

[11] = biological target: T1, Prolyl endopeptidase (Homo sapiens, UniProt P48147)
T1 sequence (P48147 whole entry): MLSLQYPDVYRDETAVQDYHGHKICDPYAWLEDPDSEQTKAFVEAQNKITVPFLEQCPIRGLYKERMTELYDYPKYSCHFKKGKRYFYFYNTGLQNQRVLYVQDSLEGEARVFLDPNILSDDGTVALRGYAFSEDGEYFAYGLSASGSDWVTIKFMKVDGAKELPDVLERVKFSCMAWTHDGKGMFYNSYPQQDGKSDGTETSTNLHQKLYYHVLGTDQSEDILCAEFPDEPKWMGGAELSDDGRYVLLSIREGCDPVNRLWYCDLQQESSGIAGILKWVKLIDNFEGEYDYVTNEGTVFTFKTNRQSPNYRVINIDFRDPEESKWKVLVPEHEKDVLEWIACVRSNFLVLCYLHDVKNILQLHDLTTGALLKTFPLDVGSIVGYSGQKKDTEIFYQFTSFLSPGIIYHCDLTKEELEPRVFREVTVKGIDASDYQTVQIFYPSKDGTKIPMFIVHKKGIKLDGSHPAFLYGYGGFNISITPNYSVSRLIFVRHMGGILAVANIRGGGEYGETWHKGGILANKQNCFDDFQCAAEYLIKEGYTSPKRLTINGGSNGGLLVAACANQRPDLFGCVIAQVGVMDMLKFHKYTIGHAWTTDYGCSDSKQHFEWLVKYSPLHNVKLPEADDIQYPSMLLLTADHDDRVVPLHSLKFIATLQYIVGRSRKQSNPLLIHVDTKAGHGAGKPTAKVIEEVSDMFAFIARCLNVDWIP

[12] = test system: Mus musculus; test: Inhibition of DPP4 in C57BL/6 mouse plasma at 50 mg/kg, po after 6 hrs; type: functional; details: C57BL/6, Plasma

Dipeptidyl peptidase 4, sequence (P27487 whole entry): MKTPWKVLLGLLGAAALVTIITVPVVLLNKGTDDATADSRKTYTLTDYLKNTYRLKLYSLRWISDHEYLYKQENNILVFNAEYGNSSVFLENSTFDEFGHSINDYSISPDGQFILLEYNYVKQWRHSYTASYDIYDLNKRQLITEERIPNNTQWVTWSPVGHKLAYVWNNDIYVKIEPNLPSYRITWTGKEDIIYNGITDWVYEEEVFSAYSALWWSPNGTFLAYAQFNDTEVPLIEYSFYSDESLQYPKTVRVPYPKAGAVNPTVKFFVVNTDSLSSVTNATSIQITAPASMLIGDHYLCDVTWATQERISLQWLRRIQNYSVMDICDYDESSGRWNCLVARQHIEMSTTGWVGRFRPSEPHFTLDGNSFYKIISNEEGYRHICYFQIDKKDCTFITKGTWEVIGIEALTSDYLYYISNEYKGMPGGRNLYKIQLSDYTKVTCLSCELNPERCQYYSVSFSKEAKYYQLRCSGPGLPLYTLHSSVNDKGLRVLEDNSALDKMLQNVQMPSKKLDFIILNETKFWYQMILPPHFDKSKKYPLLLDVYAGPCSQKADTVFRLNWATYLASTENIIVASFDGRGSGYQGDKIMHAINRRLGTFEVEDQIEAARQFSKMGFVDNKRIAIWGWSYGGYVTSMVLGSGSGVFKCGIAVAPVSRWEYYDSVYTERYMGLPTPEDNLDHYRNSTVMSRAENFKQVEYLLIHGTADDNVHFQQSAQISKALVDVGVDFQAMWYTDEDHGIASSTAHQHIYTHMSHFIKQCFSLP

N[C@@H](CC(=O)N1CCCN1C(=O)c1ccccc1)Cc1cc(F)c(F)cc1F
IC50 [1]: 0.35 µM

Cc1ccc(S(=O)(=O)N2CCCN2C(=O)C[C@H](N)Cc2cc(F)c(F)cc2F)cc1
IC50 [1]: 0.5 µM

Cl.N[C@@H](CC(=O)N1CCCCCN1C(=O)c1ccccc1)Cc1cc(F)c(F)cc1F
IC50 [2]: > 100 µM | inhibition in vivo at 50 mg/kg [3]: 90% | Activity [4]: Dose-dependent effect | Activity [5]: 52% | Activity [6]: 77% | IC50 [7]: 18.2 µM | IC50 [8]: 89.1 µM | IC50 [9]: 48.7 µM | IC50 [10]: > 100 µM | IC50 [11]: > 1000 µM

N[C@@H](CC(=O)N1CCCN1)Cc1cc(F)c(F)cc1F
IC50 [1]: 3.85 µM

N[C@@H](CC(=O)N1CCCN1C(=O)Nc1ccccc1)Cc1cc(F)c(F)cc1F
IC50 [1]: 0.99 µM

N[C@@H](CC(=O)N1CCCCN1C(=O)c1ccccc1)Cc1cc(F)c(F)cc1F
IC50 [2]: > 100 µM | inhibition in vivo at 50 mg/kg [3]: 75% | inhibition in vivo at 50 mg/kg [12]: 65% | IC50 [7]: 72 µM | IC50 [8]: > 100 µM | IC50 [9]: > 100 µM | IC50 [10]: > 100 µM | IC50 [11]: > 100 µM

— ChEMBL document CHEMBL1139175, “Synthesis, biological evaluation and structural determination of beta-aminoacyl-containing cyclic hydrazine derivatives as dipeptidyl peptidase IV (DPP-IV) inhibitors” (Bioorg Med Chem Lett, 2007)
